Columns and labels:
Pyricularia oryzae = assay type: cell-based; conditions: 125 ppm, microtiter plate, absorption at 405 nm on day 7 after inoculation, relative to active compound-free control

Compound | relative pathogen growth (Pyricularia oryzae) [%] | melting point [°C]
CC1CCCN1c1nc(C#N)nc(Cl)c1/C(Br)=C(\Br)[Si](C)(C)C (stereo not drawn) [C-1, 4-Chloro-2-cyano-5-((E)-1,2-dibromo-2-trimethylsilylvinyl)-6-(2-methylpyrrolidin-1-yl)-pyrimidine] | 0 | 166 to 168
CONC(=N)c1nc(Cl)c(/C(Br)=C(/Cl)Br)c(N2CCCC2C)n1 (stereo not drawn) [C-4, N-Methoxy-4-chlor-5-((E)-2-chloro-1,2-dibromovinyl)-6-(2-methyl-pyrrolidin-1-yl)-2-pyrimidinecarboximidamide] | 0 | 

— patent publication US20090069180A1 (priority 2006, published 2009)
